The record followed here is patent US20230114728A1 (Venatorx Pharmaceuticals, Inc., priority 2019, published 2023).

Test [1] deals with T1, E. coli K12 PBP2 (Escherichia coli, UniProt P0AD65).
T1 construct: made in house
The experiment in a line: Bocillin-FL fluorescence polarization competition binding assay, E. coli PBP2. The source says: (§1) Example I: Experimental Method for Penicillin-Binding Protein Binding Assays with Bocillin-FL Via Fluorescence Polarization
(§2) To determine the ability of boronic acid-based test PBP inhibitors to bind Penicillin Binding Proteins (PBPs), Bocillin-FL (fluorescently-labeled penicillin V; ThermoFisher Scientific) was used in a fluorescence polarization (FP) competition binding assay to assess inhibitor binding to PBP2, PBP3 or PBP4 from Escherichia coli (K12), PBP3 from Pseudomonas aeruginosa (PA01), PBP1a, PBP2 and PBP3 from Acinetobacter baumannii (ATCC 19606), and PBP2 from Neiserria gonorrheae (FA19). PBPs were cloned and purified as described previously (E. coli PBPs, King, D. T, et al., ACS Infectious Diseases 2015, 1, 175-184; P. aeruginosa PBP3, Han et. al., PNAS 2010, 107 (51), 22002-22007; A. baumannii PBPs, Penwell et. al., Antimicrob. Agents Chemother. 2015, 59 (3), 1680-1689; N. gonorrhoeae PBP2, Singh et. al., J Biol. Chem. 2019, 294 (38), 14020-14032). To establish assay conditions for competition binding, enzyme titration/saturation binding experiments were initially performed. Bocillin-FL was prepared at 0.2 μM in a buffer comprised of 50 mM Hepes (pH 8.0), 300 mM NaCl and 5% (v/v) glycerol for reactions with E. coli, P. aeruginosa and N. gonorrhoeae PBPs, and 25 mM Tris (pH 8.0), 200 mM NaCl and 10% (v/v) glycerol and 0.005% (v/v) Tween 20 for reactions with A. baumannii PBPs. Saturation binding was performed by mixing 40 μl of PBP solutions ranging in concentrations from 0-24 μM with 40 μl of the 0.2 μM Bocillin-FL solution, in individual wells of a black 384-well microplate. FP was measured immediately upon mixing (Excitation, 490 nm; Emission, 520 nm; g-factor, 0.96), using a Cytation3 (BioTek) microplate reader and measured continuously for up to 120 minutes. […] Bocillin-FL was added and the FP immediately measured for up to 60 minutes (90 minutes for E. coli PBP2). […]
(In general: Polarisation of emitted light reports the rotation of a fluorescent probe.)

Test [2] has as its target T2, E. coli K12 PBP4 (Escherichia coli, UniProt P24228).
T2 construct: made in house
The experiment in a line: Bocillin-FL fluorescence polarization competition binding assay, E. coli PBP4. The conditions noted are these: fluorescence polarization competition binding assay using Bocillin-FL; read-out: E. coli K12 PBP4 Potency (EC50).
Text: as §1, §2

For test [3], the system named is P. aeruginosa PAO1. The experiment in a line: Broth microdilution MIC in CAMHB. It is filed as cell-based. The conditions noted are these: Pseudomonas aeruginosa, MHB, read-out: Minimum Inhibitory Concentration, P. aeruginosa PAO1. The procedure: To determine the ability of test compounds to inhibit the growth of bacterial strains, classic cell based broth microdilution minimum inhibitory concentration (MIC) assays were employed. MIC assays are performed according to CLSI methods except where otherwise noted (CLSI, 2018 and CLSI, 2019). The reference type strain E. coli ATCC 25922; the wild-type parent strain E. coli AG100; the hyper-permeable E. coli 901C and E. coli D22; and the E. coli AG100A strain lacking the acrAB efflux pump encoding genes were used to determine the ability of the PBP inhibitors to penetrate the outer membrane of gram-negative bacteria and inhibit bacterial growth. […] The P. aeruginosa ATCC 27853 and A. baumannii ATCC 19606, along with the hyper-permeable P. aeruginosa ATCC 35151 and an engineered efflux pump-compromised strain of P. aeruginosa (ΔmexAB-oprM) were used to determine the ability of PBP inhibitors to penetrate the outer membrane of P. aeruginosa and A. baumannii and assess antibacterial activity against these important gram-negative organisms.
Briefly, cryo-preserved bacterial cultures of challenge strains are streaked for isolation on appropriate agar medium, in this case cation-adjusted Mueller Hinton agar. Following incubation to allow growth of the colonies, plates are sealed with parafilm and stored refrigerated for up to two weeks. For preparation of assay inoculum and to ensure low variability, at least 5 colonies are picked from the agar plates with an inoculating loop and aseptically transferred to a culture tube containing 3 mL of cation-adjusted Mueller Hinton broth (CAMHB). The broth culture is grown for 3-5 hours at 37° C. with shaking at 200 rpm. Meanwhile, 2-fold serial dilutions of test compounds are conducted in a 96-well plate with a final volume of 75 μL per well at 2-fold the final desired concentration. After the dilution plates are set up the growing cultures are then diluted in a cuvette containing CAMHB and the optical density is measured at 600 nm. The inoculum is diluted such that 75 μL of this culture in CAMHB results in a starting bacterial concentration of 2-8×10^5 CFU/mL when added to the dilution plates. The plates are incubated for 16-20 hours for Enterobacteriaceae and Pseudomonas and 20-24 hours for Acinetobacter at 37° C. The MIC values are read visually as the lowest concentration well with no bacterial growth.
Background: Broth dilution looks for growth in wells or tubes with falling amounts of substance.

T2 sequence (P24228 21-477): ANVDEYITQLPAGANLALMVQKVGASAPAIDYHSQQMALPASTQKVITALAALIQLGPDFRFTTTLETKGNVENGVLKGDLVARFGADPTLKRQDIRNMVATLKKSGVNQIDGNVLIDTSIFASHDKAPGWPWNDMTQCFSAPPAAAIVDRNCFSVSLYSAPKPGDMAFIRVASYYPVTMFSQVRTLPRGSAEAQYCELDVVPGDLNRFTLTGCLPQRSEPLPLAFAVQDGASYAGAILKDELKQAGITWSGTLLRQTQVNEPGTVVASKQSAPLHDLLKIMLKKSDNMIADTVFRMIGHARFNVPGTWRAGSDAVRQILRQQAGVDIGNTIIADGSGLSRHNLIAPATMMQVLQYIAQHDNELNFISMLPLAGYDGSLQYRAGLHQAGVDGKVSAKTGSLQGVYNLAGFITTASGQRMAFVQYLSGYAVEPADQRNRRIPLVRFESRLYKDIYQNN
T1 sequence (P0AD65 whole entry): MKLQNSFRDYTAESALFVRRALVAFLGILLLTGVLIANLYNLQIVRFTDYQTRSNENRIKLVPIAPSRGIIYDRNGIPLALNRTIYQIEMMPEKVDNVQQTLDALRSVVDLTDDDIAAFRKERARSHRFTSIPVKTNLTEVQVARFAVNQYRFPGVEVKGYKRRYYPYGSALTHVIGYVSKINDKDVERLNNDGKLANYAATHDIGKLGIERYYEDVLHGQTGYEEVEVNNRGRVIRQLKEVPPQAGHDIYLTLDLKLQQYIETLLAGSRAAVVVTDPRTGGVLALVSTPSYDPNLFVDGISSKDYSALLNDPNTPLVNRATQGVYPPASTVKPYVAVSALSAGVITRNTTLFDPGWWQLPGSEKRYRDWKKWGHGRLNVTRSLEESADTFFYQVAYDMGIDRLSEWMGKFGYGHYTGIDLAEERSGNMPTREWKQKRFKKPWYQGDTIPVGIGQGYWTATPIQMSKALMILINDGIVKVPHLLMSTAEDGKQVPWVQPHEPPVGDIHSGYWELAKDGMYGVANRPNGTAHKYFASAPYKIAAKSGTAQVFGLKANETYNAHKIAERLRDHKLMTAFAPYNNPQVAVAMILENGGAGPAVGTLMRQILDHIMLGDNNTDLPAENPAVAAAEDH

Usually EC50 stands for the concentration giving half of the maximal effect. `CCN1CCN(C(=O)NC(C(=O)N[C@H]2Cc3ccc(S)c(C(=O)O)c3OB2O)c2csc(N)n2)C(=O)C1=O` (stereo partly drawn) [Example 54, (3R)-3-(2-(2-aminothiazol-4-yl)-2-(4-ethyl-2,3-dioxopiperazine-1-carboxamido)acetamido)-2-hydroxy-7-mercapto-3,4-dihydro-2H-benzo[e][1,2]oxaborinine-8-carboxylic acid]: the EC50 in test [1] and in test [2] was 30 to 500 µM throughout. For `CCN1CCN(C(=O)NC(C(=O)N[C@H]2Cc3ccc(SCc4ccc(O)cc4)c(C(=O)O)c3OB2O)c2csc(N)n2)C(=O)C1=O` (stereo partly drawn) [Example 55, (3R)-3-(2-(2-aminothiazol-4-yl)-2-(4-ethyl-2,3-dioxopiperazine-1-carboxamido)acetamido)-2-hydroxy-7-((4-hydroxybenzyl)thio)-3,4-dihydro-2H-benzo[e][1,2]oxaborinine-8-carboxylic acid], in test [3], the MIC was > 128 µg/mL. Besides, the concentration giving a half-maximal response (EC50) in test [1] and in test [2] was 30 to 500 µM throughout. Turning to `CCN1CCN(C(=O)NC(C(=O)N[C@H]2Cc3ccc(C=O)c(C(=O)O)c3OB2O)c2csc(N)n2)C(=O)C1=O` (stereo partly drawn) [Example 57, (3R)-3-(2-(2-aminothiazol-4-yl)-2-(4-ethyl-2,3-dioxopiperazine-1-carboxamido)acetamido)-7-formyl-2-hydroxy-3,4-dihydro-2H-benzo[e][1,2]oxaborinine-8-carboxylic acid], the MIC in test [3] was > 128 µg/mL. Same read-out and setting: under `CCN1CCN(C(=O)NC(C(=O)N[C@H]2Cc3ccc(CO)c(C(=O)O)c3OB2O)c2csc(N)n2)C(O)C1=O` (stereo partly drawn) [Example 58, (3R)-3-(2-(2-aminothiazol-4-yl)-2-(4-ethyl-2-hydroxy-3-oxopiperazine-1-carboxamido)acetamido)-2-hydroxy-7-(hydroxymethyl)-3,4-dihydro-2H-benzo[el][1,2]oxaborinine-8-carboxylic acid] stands > 128 µg/mL; under `CCN1CCN(C(=O)NC(C(=O)N[C@H]2Cc3ccc(O[C@@H]4CN[C@H](C(=O)N(C)C)C4)c(C(=O)O)c3OB2O)c2ccccc2)C(=O)C1=O` (stereo partly drawn) [Example 59, (3R)-7-(((3S,5S)-5-(dimethylcarbamoyl)pyrrolidin-3-yl)oxy)-3-(2-(4-ethyl-2,3-dioxopiperazine-1-carboxamido)-2-phenylacetamido)-2-hydroxy-3,4-dihydro-2H-benzo[e][1,2]oxaborinine-8-carboxylic acid], > 128 µg/mL. Still for that read-out and setting: the figure for `CCN1CCN(C(=O)NC(C(=O)N[C@H]2Cc3ccc(OCCN)c(C(=O)O)c3OB2O)c2ccccc2)C(=O)C1=O` (stereo partly drawn) [Example 60, (3R)-7-(2-aminoethoxy)-3-(2-(4-ethyl-2,3-dioxopiperazine-1-carboxamido)-2-phenylacetamido)-2-hydroxy-3,4-dihydro-2H-benzo[e][1,2]oxaborinine-8-carboxylic acid] is > 128 µg/mL.
